Where “and” joins values, the source holds several entries; their conditions need not be identical. Equal values may be shown once.
Assays:
IFNAR1 = assay: Density of interferon receptor subunit IFNAR1 on the surface of primary human macrophages (antibody staining, optical density); type: cell-based; conditions: primary human macrophages, 0.1, 1.0, 10 or 100 ng/mL, 24 hours (FIG. 2)
Method: (§1) A 10-day primary culture of human macrophages in 96-well plates was incubated for 24 hours in the presence of glutaryl histamine at concentrations: 0.1, 1.0, 10 or 100 ng/mL or without it. […] The preparation was visualized by staining with horseradish peroxidase-labeled secondary antibodies and adding a substrate. Optical density was measured using an ELISA spectrophotometer.

IFNAR2 mRNA = assay: mRNA synthesis of interferon receptor subunit IFNAR2, Real Time PCR in A-549 cells; type: cell-based; conditions: 100 ng/mL, 16 hours after the treatment (FIG. 1)
Method: (§2) A continuous cell line A-549 was treated with glutaryl histamine at a concentration of 100 ng/mL. […] The RNAs were isolated by using RNEASY® Kit (Qiagen). The RNA preparation was treated with DNAase (RNase-free DNaseI (Ambion). Reverse transcription was performed by using THERMOSCRIPT™ RT-PCR System (Invitrogen). Quantitative PCR was carried out with the primers: […]

[1] = tested on: herpes simplex virus HSV-1/CL; assay: Murine model of herpes meningoencephalitis, HSV-1/CL; type: in vivo; conditions: mice
Method: (§3) Mice were intracerebrally infected with herpes simplex virus HSV-1/CL and HSV-2/VN in a dose of 30 μl comprising 10 LD50.
(§4) A therapeutic effect of glutaryl histamine was studied by once-daily oral administration of 200 μl of the drug to the infected mice at a dose of 30 mg/kg 24, 48, 72, 96, and 120 hours after infection with the virus. Mice of the control group were administered placebo under the same conditions ([…] of a physiological solution). The animals were monitored for 14 days after infection, and fatal cases among mice from herpes meningocephalitis were registered in the treated and control groups. Activity of the drug was evaluated by comparing mortality rates of animals treated with glutaryl histamine relative to animals of the control group. A reduction in the mortality rate of the treated animals relative to the control was expressed in percentage.

IFNAR1 mRNA = assay: mRNA synthesis of interferon receptor subunit IFNAR1, Real Time PCR in A-549 cells; type: cell-based; conditions: 100 ng/mL, 16 hours after the treatment (FIG. 1)
Method: as §2

[2] = Toxic reactions and side effects on administration
protein MxA = assay: Cell sensitivity to interferon: MxA protein immunoblot in A-549 cells; type: cell-based; conditions: for synthesis of MxA protein: glutaryl histamine 100 ng/mL plus 1 IU interferon-alpha
Text: Cell lysates were undergone to the procedure of immunoblot analysis (western blotting) by using monoclonal antibodies against to protein MxA (sc-50509, Santa Cruz Biotechnology) to stain membranes by a chemiluminescence method using a substrate (chemiluminescent reagent SUPER SIGNAL® West Femto Chemiluminescent Substrate (Thermo Fisher Scientific)).

[3] = tested on: herpes simplex virus HSV-2/VN; assay: Murine model of herpes meningoencephalitis, HSV-2/VN; type: in vivo; conditions: mice
Method: as §3, §4

IFNAR2 = assay: Density of interferon receptor subunit IFNAR2 on the surface of primary human macrophages (antibody staining, optical density); type: cell-based; conditions: primary human macrophages, 0.1, 1.0, 10 or 100 ng/mL, 24 hours (FIG. 2)
Method: as §1

For `O=C(O)CCCC(=O)NCCc1c[nH]cn1` [glutaryl histamine], the “density of IFNAR1 on the cell surface (signal in antibody staining)” value (IFNAR1) was “noticeably increased level of the signal”, the “increase in the amount of the mRNA of subunit IFNAR2” value (IFNAR2 mRNA) was “three-fold increase” and the “Mortality rate, %” value ([1]; HSV-1 strain CL intracerebral 10 LD50, oral once daily 24-120 h after infection, 14 days monitoring, control 95.0) was 65%. The “Life expectancy, days M ± σ” value ([1]; HSV-1 strain CL, 14 days monitoring, control 4.8 ± 3.1) was 8.1 days and 8.1 ± 4.9 days, the “Protection index, %” value ([1]; HSV-1 strain CL, reduction in mortality relative to control) was 31.6% and the “increase in the mRNA synthesis of subunit IFNAR1” value (IFNAR1 mRNA) was “at least in a two-folded increase”. The “toxic reactions and other side effects” value ([2]; accompanying the therapeutic effect) was “not accompanied by toxic reactions and other side effects”, the adverse side effects ([2]; long-term administration in therapeutic doses or doses greater by an order of magnitude) was “has not demonstrated adverse side effects” and the “synthesis of MxA protein” value (protein MxA; 8 hours (line 5, FIG. 3)) was “increased synthesis”. For the same compound, the “synthesis of MxA protein” value (protein MxA; 24 hours (line 6, FIG. 3)) was “increased synthesis”, the “accumulation of MxA protein” value (protein MxA; glutaryl histamine 100 ng/mL, not treated with interferon (lines 1, 2, 3, FIG. 3)) was “did not cause the accumulation” and the “Life expectancy, days M ± σ” value ([3]; HSV-2, 14 days monitoring, control 6.1 ± 4.3) was 10.2 days and 10.2 ± 4.8 days. For the same compound, the “Protection index, %” value ([3]; HSV-2, reduction in mortality relative to control) was 47.1%, the “Mortality rate, %” value ([3]; HSV-2 intracerebral 10 LD50, oral once daily 24-120 h after infection, 14 days monitoring, control 85.0) was 45% and the “density of IFNAR2 on the cell surface (signal in antibody staining)” value (IFNAR2) was “noticeably increased level of the signal”.

Reference: US9730915B2 (OBSCHESTVO S OGRANICHENNOI OTVETSTVENNOSTIYU …, priority 2013, dated 2017)
